The text below walks through data of ChEMBL document CHEMBL1157518, “New trypanocidal hybrid compounds from the association of hydrazone moieties and benzofuroxan heterocycle” (Bioorg Med Chem, 2008).

One data set deals with Cruzipain (Trypanosoma cruzi, UniProt P25779). In words: Inhibition of Trypanosoma cruzi Tulahuen 2 epimastigote cruzipain by spectrophotometry.
In data set [1] the test system is Trypanosoma cruzi. In words: Antitrypanosomal activity against epimastigotes of Trypanosoma cruzi Tulahuen 2. The class given is functional, organism-based.
In data set [2] the test system is Trypanosoma cruzi. In words: Antitrypanosomal activity against epimastigotes of Trypanosoma cruzi Tulahuen 2 at 25 uM relative to control. Type of data set: functional. The conditions noted are these: read-out: GI.
Another data set concerns J774. In words: Cytotoxicity against mouse J774 cells after 48 hrs by MTT assay. The conditions noted are these: J774, 48 h. Type of data set: cell-based. (Formazan colour is commonly taken as a measure of viable cells.)
The nature of data set [3]: Selectivity index, ratio of IC50 for mouse J774 cells to IC50 for epimastigotes of Trypanosoma cruzi Tulahuen 2. Type of data set: toxicity, cell-based. The conditions noted are these: read-out: Ratio IC50.
In data set [4] the target is Trypanothione reductase (Trypanosoma cruzi) (UniProt P28593). In words: Inhibition of Trypanosoma cruzi recombinant trypanothione reductase at […] by spectrophotometry.
For data set [5], the system named is Trypanosoma cruzi. In words: Antitrypanosomal activity against epimastigotes of Trypanosoma cruzi CL Brener. The class given is functional, organism-based.
The target in data set [6] is Trypanothione reductase (Trypanosoma cruzi) (UniProt P28593). In words: Inhibition of Trypanosoma cruzi recombinant trypanothione reductase at 100 uM by spectrophotometry.
For data set [7] the target is unchanged. In words: Inhibition of Trypanosoma cruzi recombinant trypanothione reductase at 40 uM by spectrophotometry.
The target of data set [8] is Cruzipain (Trypanosoma cruzi) (UniProt P25779). In words: Inhibition of Trypanosoma cruzi Tulahuen 2 epimastigote cruzipain at 100 uM by spectrophotometry.
Cruzipain (Trypanosoma cruzi), sequence (P25779 123-467 limits assumed): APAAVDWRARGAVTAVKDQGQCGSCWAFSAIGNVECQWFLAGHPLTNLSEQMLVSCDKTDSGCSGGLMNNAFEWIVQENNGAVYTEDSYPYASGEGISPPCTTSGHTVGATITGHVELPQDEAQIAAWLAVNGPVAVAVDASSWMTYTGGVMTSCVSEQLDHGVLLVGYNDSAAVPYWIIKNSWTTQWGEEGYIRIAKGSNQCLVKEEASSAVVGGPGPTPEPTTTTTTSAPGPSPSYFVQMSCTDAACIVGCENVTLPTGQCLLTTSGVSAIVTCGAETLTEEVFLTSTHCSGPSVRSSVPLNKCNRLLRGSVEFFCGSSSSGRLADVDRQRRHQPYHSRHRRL

Cruzipain, sequence (P25779 whole entry): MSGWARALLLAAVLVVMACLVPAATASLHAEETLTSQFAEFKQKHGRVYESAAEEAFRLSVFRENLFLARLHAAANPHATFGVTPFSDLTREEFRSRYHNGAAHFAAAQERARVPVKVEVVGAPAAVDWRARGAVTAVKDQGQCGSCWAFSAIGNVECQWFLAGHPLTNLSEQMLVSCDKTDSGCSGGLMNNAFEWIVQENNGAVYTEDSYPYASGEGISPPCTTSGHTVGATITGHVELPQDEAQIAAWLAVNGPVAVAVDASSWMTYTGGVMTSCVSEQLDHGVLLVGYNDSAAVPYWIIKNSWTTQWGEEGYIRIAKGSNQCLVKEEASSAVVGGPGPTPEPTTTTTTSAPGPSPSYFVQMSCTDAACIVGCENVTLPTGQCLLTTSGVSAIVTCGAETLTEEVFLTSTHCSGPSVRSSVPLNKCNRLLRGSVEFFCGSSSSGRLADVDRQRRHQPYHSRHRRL
Trypanothione reductase (Trypanosoma cruzi), sequence (P28593 whole entry, looked up): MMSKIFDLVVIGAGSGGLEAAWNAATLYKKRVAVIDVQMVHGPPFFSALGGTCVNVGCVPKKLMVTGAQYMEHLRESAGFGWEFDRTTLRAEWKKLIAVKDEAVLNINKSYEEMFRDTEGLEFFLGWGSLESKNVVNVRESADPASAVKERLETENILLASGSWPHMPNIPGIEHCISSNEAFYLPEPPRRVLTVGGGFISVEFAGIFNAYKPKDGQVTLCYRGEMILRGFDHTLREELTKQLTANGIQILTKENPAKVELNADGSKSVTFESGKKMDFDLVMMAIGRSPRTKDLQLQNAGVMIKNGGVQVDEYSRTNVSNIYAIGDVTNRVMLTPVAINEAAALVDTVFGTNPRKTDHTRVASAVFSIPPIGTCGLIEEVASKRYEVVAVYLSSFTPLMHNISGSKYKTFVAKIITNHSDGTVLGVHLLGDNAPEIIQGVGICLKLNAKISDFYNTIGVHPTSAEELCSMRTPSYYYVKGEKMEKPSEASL

With `[O-][n+]1onc2ccc(/C=N/N=C/c3cc(Br)ccc3O)cc21`, the figures for the IC50 at Cruzipain, in the data set on Trypanosoma cruzi [1] and in the data set with J774 were 73 µM, 25 µM and 84 µM, respectively. Further, in the data set on Trypanosoma cruzi [2], the inhibition of growth at 25 µM came out at 48%. Further, in data set [3], the selectivity ratio was under 3.4.
On to `[O-][n+]1onc2ccc(/C=N/N=C/c3ccccc3O)cc21`, for which the IC50 (commonly the point on the concentration scale where inhibition reaches its midpoint) was 68 µM against Cruzipain and over 25 µM with Trypanosoma cruzi [1]. Also, in the data set with Trypanosoma cruzi [2], the inhibition of growth at 25 µM came to 17%.
Take `NC(=S)N/N=C/c1ccc(OCc2ccc3no[n+]([O-])c3c2)cc1`: the results for the IC50 against Cruzipain, in the data set on J774 and in the data set with Trypanosoma cruzi [5] were 43 µM, 400 µM and 19.8 µM, respectively. The inhibition in [4] and in [6] was 0% in each case. The inhibition of growth at 25 µM in the data set on Trypanosoma cruzi [2] came to 70%. Also, the selectivity ratio in data set [3] worked out at 26.7.
For the molecule `[O-][n+]1onc2ccc(/C=N/N=C/c3ccc(O)cc3)cc21`, the IC50 against Cruzipain is 100 µM; in the data set with Trypanosoma cruzi [1], 25 µM. Further, the inhibition of growth at 25 µM with Trypanosoma cruzi [2] was 52%.
Consider `CC1CS(=O)(=O)CCN1/N=C/c1ccc([N+](=O)[O-])o1` (centres undefined) [NIFURTIMOX], for which the inhibition of growth at 25 µM in the data set with Trypanosoma cruzi [2] worked out at 100%.
For the molecule `N=C(N/N=C/c1ccc(O)cc1)SCc1ccc2no[n+]([O-])c2c1`, the IC50 is 6.8 µM in the data set with Trypanosoma cruzi [1] and 142 µM in the data set on J774. Moreover, in the data set with Trypanosoma cruzi [2], the inhibition of growth at 25 µM amounted to 100%. Also, in [3], the selectivity ratio stood at 20.9. Further, the inhibition (usually how much of the control response was suppressed) in data set [6] was 19%.
As for `O=Cc1ccc(OCc2ccc3no[n+]([O-])c3c2)cc1`, the figures for the IC50 in the data set with Trypanosoma cruzi [1] and in the data set with J774 were 8.7 µM and 60 µM, respectively. The inhibition of growth at 25 µM in the data set on Trypanosoma cruzi [2] is 98%. Also, in data set [3], the selectivity ratio was 6.9. Further, in data set [6], the inhibition was 19%.
For the molecule `CN(C/C=C/C#CC(C)(C)C)Cc1cccc2ccccc12` [TERBINAFINE], the inhibition of growth at 25 µM with Trypanosoma cruzi [2] is 100%. For the same molecule, the selectivity ratio in data set [3] came out at 5.1.
Take `C=CCNC(=S)N/N=C/c1ccc2no[n+]([O-])c2c1`: the results for the IC50 on Cruzipain and with Trypanosoma cruzi [1] were over 100 µM and over 25 µM, respectively. Also, the inhibition in data set [7] came to 13%; in data set [8], 36%; in data set [6] it was 9%. The inhibition of growth at 25 µM in the data set on Trypanosoma cruzi [2] is 35%.
On to `NC(=S)N/N=C/c1ccc2no[n+]([O-])c2c1`, for which the figures for the IC50 at Cruzipain and with Trypanosoma cruzi [1] were over 100 µM and over 25 µM, respectively. Besides, the inhibition in [7] stood at 9%; in [8], 7%; in data set [6], 19%. In the data set on Trypanosoma cruzi [2], the inhibition of growth at 25 µM is 5%.
As for `O=C(Cn1ccnc1[N+](=O)[O-])NCc1ccccc1` [BENZNIDAZOLE], in the data set on Trypanosoma cruzi [2], the inhibition of growth at 25 µM was determined as 100%.
`N=C(N)N/N=C/c1ccc(OCc2ccc3no[n+]([O-])c3c2)cc1`: the IC50 at Cruzipain was 32 µM; in the data set on Trypanosoma cruzi [1], over 25 µM; in the data set with J774 it was under 50 µM; in the data set on Trypanosoma cruzi [5], 38.2 µM. The figures for the inhibition in [7] and in data set [6] were 30% and 50%, respectively. Besides, the inhibition of growth at 25 µM in the data set with Trypanosoma cruzi [2] turned out to be 40%. For the same molecule, the selectivity ratio in data set [3] is under 2.
For the molecule `NC(=O)N/N=C/c1ccc(OCc2ccc3no[n+]([O-])c3c2)cc1`, the values for the IC50 against Cruzipain and with Trypanosoma cruzi [1] were over 100 µM and over 25 µM, respectively. The inhibition in data set [4] worked out at 0%; in [8], 23%; in data set [6], 0%. Besides, in the data set on Trypanosoma cruzi [2], the inhibition of growth at 25 µM turned out to be 25%.
As for `CC(=O)N1CCN(c2ccc(OCC3COC(Cn4ccnc4)(c4ccc(Cl)cc4Cl)O3)cc2)CC1` (centres undefined) [KETOCONAZOLE], in the data set on Trypanosoma cruzi [2], the inhibition of growth at 25 µM came to 100%. Moreover, in the data set on J774, the IC50 is under 50 µM. For the same molecule, in [3], the selectivity ratio is under 5.
For `[O-][n+]1onc2ccc(/C=N/NC(=S)Nc3ccccc3)cc21`, the IC50 on Cruzipain was 78 µM; with Trypanosoma cruzi [1], 8.9 µM; in the data set on J774, under 50 µM; in the data set with Trypanosoma cruzi [5], 2.6 µM. Also, the inhibition in data set [4] and in data set [6] was 0% throughout. Besides, in the data set on Trypanosoma cruzi [2], the inhibition of growth at 25 µM was determined as 93%. Also, the selectivity ratio in data set [3] was under 5.6.
